Test results from ChEMBL document CHEMBL1914432, “Discovery of highly potent small molecule Hepatitis C Virus entry inhibitors” (Bioorg Med Chem Lett, 2011).
Calls of active or inactive are those of the source. The rule behind the calls is not given here.

Assays:
[1] = tested on: Hepatitis C virus; assay: Antiviral activity against chronic Hepatitis C virus type 2a infected in human HuH7 cells by Renilla luciferase reporter gene assay; type: functional, organism-based, Hepacivirus hominis; conditions: genotype 2a, Huh-7
[2] = biological target: T1, Scavenger receptor class B member 1 (Homo sapiens) (UniProt Q8WTV0); assay: Inhibition of human SRB1-mediated Hepatitis C virus genotype 2a entry into human 293T cells by immunoblotting; type: cell-based
T1 sequence (whole entry): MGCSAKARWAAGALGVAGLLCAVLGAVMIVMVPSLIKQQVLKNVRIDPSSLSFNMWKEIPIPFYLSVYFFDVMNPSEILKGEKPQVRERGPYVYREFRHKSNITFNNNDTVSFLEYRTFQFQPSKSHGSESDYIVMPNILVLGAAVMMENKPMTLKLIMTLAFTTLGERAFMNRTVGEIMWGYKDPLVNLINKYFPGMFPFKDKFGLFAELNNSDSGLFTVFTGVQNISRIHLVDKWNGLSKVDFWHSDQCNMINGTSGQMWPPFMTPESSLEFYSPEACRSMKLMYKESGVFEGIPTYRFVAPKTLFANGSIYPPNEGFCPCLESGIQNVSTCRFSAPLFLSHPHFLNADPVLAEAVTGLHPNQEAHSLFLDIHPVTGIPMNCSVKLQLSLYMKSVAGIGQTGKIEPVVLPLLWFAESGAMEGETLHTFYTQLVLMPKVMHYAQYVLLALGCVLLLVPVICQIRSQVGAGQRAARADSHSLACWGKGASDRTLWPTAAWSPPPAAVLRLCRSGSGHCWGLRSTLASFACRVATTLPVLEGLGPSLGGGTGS

[3] = tested on: Plasma; assay: Drug metabolism in rat plasma assessed as plasma esterase-mediated formation of 9-(3-(4,6-dimethoxypyrimidin-2-ylamino)propyl-2,3,4,9-tetrahydro-1H-carbazole-6-carboxylic acid by LC-MS analysis; type: ADME, cell-free
[4] = tested on: Plasma; assay: Metabolic stability in rat plasma; type: ADME, cell-free
[5] = Half life in rat at 2 mg/kg, iv and 20 mg/kg, po; type: ADME, organism-based; conditions: in vivo
[6] = Oral bioavailability in rat at 20 mg/kg; type: ADME, organism-based; conditions: in vivo
[7] = Cmax in rat at 2 mg/kg, iv and 20 mg/kg, po; type: ADME, organism-based; conditions: in vivo
[8] = Clearance in rat at 2 mg/kg, iv and 20 mg/kg, po; type: ADME, organism-based; conditions: in vivo
[9] = Apparent volume of distribution in rat at 2 mg/kg, iv and 20 mg/kg, po; type: ADME, organism-based; conditions: in vivo, read-out: Vz
[10] = AUC (all) in rat at 2 mg/kg, iv and 20 mg/kg, po; type: ADME, organism-based; conditions: plasma

SMILES | IC50 [1] [nM] | also measured
COC(=O)c1ccc2c(c1)c1c(n2CCCn2ccnc2)CCCC1 | 170 | –
COc1cc(OC)nc(NCCCn2c3c(c4cc(C(=O)O)ccc42)CCCC3)n1 | – | Activity ([1]; Hepacivirus hominis): inactive; inhibition [2]: inactive
COC(=O)c1ccc2c(c1)c1c(n2CCCOc2nc(C)cc(C(F)(F)F)n2)CCCC1 | 5 | –
CCc1cc(CC)nc(OCCCn2c3c(c4cc(C(=O)OC)ccc42)CCCC3)n1 | 1.5 | –
COC(=O)c1ccc2c(c1)c1c(n2CCCS(=O)(=O)N2C[C@@H](C)O[C@@H](C)C2)CCCC1 | 150 | –
COC(=O)c1ccc2c(c1)c1c(n2CCS(=O)(=O)N(C)C)CCCC1 | > 1000 | –
CCN(CC)C(=O)c1ccc2c(c1)c1c(n2CCCNc2nc(OC)cc(OC)n2)CCCC1 | 50 | Stability [4]: Stable
COC(=O)c1ccc2c(c1)c1c(n2CCCOc2nc(OC)cc(OC)n2)CCCC1 | 0.6 | –
COC(=O)c1ccc2c(c1)c1c(n2CCCC(=O)N(C)C)CCCC1 | 300 | –
COC(=O)c1ccc2c(c1)c1c(n2CCCNc2nccc(OC)n2)CCCC1 | 15 | –
COC(=O)c1ccc2c(c1)c1c(n2CCCn2cncc2C)CCCC1 | 310 | –
COC(=O)c1ccc2c(c1)c1c(n2CCCNS(=O)(=O)c2cc(F)cc(F)c2)CCCC1 | 15 | –
COc1cc(OC)nc(NCCCn2c3c(c4cc(C(=O)N(C)C)ccc42)CCCC3)n1 | 30 | Stability [4]: Stable; half-life [5]: 33 min; bioavailability [6]: 0.6%; Cmax [7]: 51 ng/mL; clearance [8]: 45 mL/min/kg; inhibition [2]: Active; Vd [9]: 2.05 L/kg; AUC [10]: 41 ng·h/mL
COC(=O)c1ccc2c(c1)c1c(n2CCc2nc3ccccc3[nH]2)CCCC1 | 5 | –
COC(=O)c1ccc2c(c1)c1c(n2CCCN2CCOCC2)CCCC1 | 150 | –
COc1cc(OC)nc(NCCCn2c3c(c4cc(C(=O)NC(C)C)ccc42)CCCC3)n1 | 150 | Stability [4]: Stable
COC(=O)c1ccc2c(c1)c1c(n2CCCN2C[C@@H](C)O[C@@H](C)C2)CCCC1 | 25 | –
COC(=O)c1ccc2c(c1)c1c(n2CCCN2C[C@@H](C)N[C@@H](C)C2)CCCC1 | 40 | –
COC(=O)c1ccc2c(c1)c1c(n2CCCNc2nc(OC)nc(OC)n2)CCCC1 | 15 | –
COC(=O)c1ccc2c(c1)c1c(n2CCCOc2cc(Cl)nc(C)n2)CCCC1 | 1.5 | –
COC(=O)c1ccc2c(c1)c1c(n2CCCN2CCNC(=O)C2)CCCC1 | 65 | –
COC(=O)c1ccc2c(c1)c1c(n2CCCS(=O)(=O)N(C)C)CCCC1 | 5 | –

More lines, in order of falling IC50 [1], values ahead:

IC50 [1] [nM] | SMILES | also measured
300 | COC(=O)c1ccc2c(c1)c1c(n2C2CCN(c3nc(OC)cc(OC)n3)CC2)CCCC1 | –
50 | COC(=O)c1ccc2c(c1)c1c(n2CCCNS(=O)(=O)C(C)C)CCCC1 | –
50 | COC(=O)c1ccc2c(c1)c1c(n2CCCn2cnc3ncncc32)CCCC1 | –
50 | COC(=O)c1ccc2c(c1)c1c(n2CCCN2CCCC(C(=O)N(C)C)C2)CCCC1 (stereo not given) | –
50 | COC(=O)c1ccc2c(c1)c1c(n2CC2CCCN(c3nc(OC)cc(OC)n3)C2)CCCC1 (stereo not given) | –
50 | COC(=O)c1ccc2c(c1)c1c(n2CCCNc2ncccn2)CCCC1 | –
50 | COC(=O)c1ccc2c(c1)c1c(n2CCCS(=O)(=O)c2ccccc2)CCCC1 | –
30 | COC(=O)c1ccc2c(c1)c1c(n2CCCNc2nc(C)cc(C(=O)OC)n2)CCCC1 | –
30 | COC(=O)c1ccc2c(c1)c1c(n2CCCS(=O)(=O)N2CCCCC2)CCCC1 | –
30 | COC(=O)c1ccc2c(c1)c1c(n2CCCCNc2nc(OC)cc(OC)n2)CCCC1 | –
30 | COC(=O)c1ccc2c(c1)c1c(n2CCCNc2cc(C)nc(Cl)n2)CCCC1 | –
15 | COC(=O)c1ccc2c(c1)c1c(n2CCCS(=O)(=O)N2CCOCC2)CCCC1 | –
15 | COC(=O)c1ccc2c(c1)c1c(n2CCCS(=O)(=O)N2CCC2)CCCC1 | –
15 | COC(=O)c1ccc2c(c1)c1c(n2CC2CCN(c3nc(OC)cc(OC)n3)CC2)CCCC1 | –
10 | COc1cc(OC)nc(NCCCn2c3c(c4cc(C(=O)OC(C)C)ccc42)CCCC3)n1 | Stability [4]: Stable; half-life [5]: 74.4 min; bioavailability [6]: 19%; Cmax [7]: 547 ng/mL; clearance [8]: 71.8 mL/min/kg; inhibition [2]: Active; Vd [9]: 17.6 L/kg; AUC [10]: 896 ng·h/mL
10 | CNC(=O)c1ccc2c(c1)c1c(n2CCCNc2nc(OC)cc(OC)n2)CCCC1 | Stability [4]: Stable; half-life [5]: 28.2 min; bioavailability [6]: 0.8%; Cmax [7]: 51 ng/mL; clearance [8]: 58.2 mL/min/kg; inhibition [2]: Active; Vd [9]: 1.33 L/kg; AUC [10]: 45 ng·h/mL
5 | COC(=O)c1ccc2c(c1)c1c(n2CCc2nc3cc(C)c(C)cc3[nH]2)CCCC1 | –
1.5 | COC(=O)c1ccc2c(c1)c1c(n2CCCNc2nc(OC)cc(OC)n2)CCCC1 | Drug metabolism [3]: Active; inhibition [2]: Active
1.5 | COC(=O)c1ccc2c(c1)c1c(n2CCCN(C)c2nc(OC)cc(OC)n2)CCCC1 | –
